The data set can be described thus: Determination of drug stability: testosterone impurities/degradants in hot-melt extruded composition by HPLC. The format is physicochemical. The method, then: Testosterone and any other ingredients were added to the wet granulated excipient mixture prepared according to Example 1. The blend was extruded as a monolayer film using a having a barrel temperature of 135° C. The moisture content of the blend prior to extrusion was 3.1%. The HME composition is then analyzed by HPLC according to Example 4 to determine the amount of degradants present.
Twenty doses were sampled from a HME composition at the beginning, middle and end of the extrusion run a formulation. Composites of 10 doses were analyzed in duplicate for impurities by HPLC at each time point. The weight percent for each degradant was determined. Specific degradants analyzed include: 6B-Hydroxy-testosterone, 4-Androsten-16-alpha-ol-3,17-dione, Epi-Testosterone and unidentified degradants. The HPLC method employed will vary according to the drug included in the HME composition. Such methods are found in HPLC in the Pharmaceutical Industry (edited by Godwin W. Fong, Stanley K. Lam, New York: M. Dekker, 1991) or HPLC Methods for Pharmaceutical Analysis (by George Lunn and Norman R. Schmuff. New York: John Wiley & Sons, 1997), the disclosures of which are hereby incorporated by reference.

[1] abbreviates: HME composition extruded at 135 ° C.
[2] abbreviates: HME composition extruded at 145 ° C.
The mark [3] stands for this setting: HME composition, granulation fluid Aqueous Ethanol.
Setting [4] is: HME composition, granulation fluid Water.

Experimental findings from US9867786B2, “Stabilized compositions containing alkaline labile drugs” (AUXILIUM US HOLDINGS, LLC, priority 2006, dated 2018) are described below.

In the case of `C[C@]12CC[C@H]3[C@@H](CCC4=CC(=O)CC[C@@]43C)[C@@H]1CC[C@@H]2O` [testosterone], the “Total Unknown Impurities (%)” value runs as follows: (HME composition (PolyOx, Poloxamer wet granulated with water, Carbopol) extruded at 135 ° C.) 0.1%; (HME composition (PolyOx, Poloxamer wet granulated with water, Carbopol) extruded at 145 ° C.) 0.4%; (HME composition, granulation fluid Aqueous Ethanol (50:50 water/ethanol)) 0.00-0.75%; under setting [4], 0.50-1.00%. In addition, the “4-Androsten-16-alpha-ol-3,17-dione (%)” value reads like this: under setting [1], “ND (ND denotes below the limit of quantitation using the HPLC method detailed herein. In this case, ND means less than 0.1% by wt.)”; under setting [2], “ND (ND denotes below the limit of quantitation using the HPLC method detailed herein. In this case, ND means less than 0.1% by wt.)”; under setting [3], 0.00-0.20%; under setting [4], 0.10-0.50%. The “6B-Hydroxy-testosterone (%)” value is, setting by setting: under setting [1], “ND (ND denotes below the limit of quantitation using the HPLC method detailed herein. In this case, ND means less than 0.1% by wt.)”; under setting [2], 0.15%; under setting [3], 0.00-0.20%; under setting [4], 0.10-0.50%. Besides, the “Epi-Testosterone (%)” value is “ND (ND denotes below the limit of quantitation using the HPLC method detailed herein. In this case, ND means less than 0.1% by wt.)” under setting [1]; “ND (ND denotes below the limit of quantitation using the HPLC method detailed herein. In this case, ND means less than 0.1% by wt.)” under setting [2]; 0.00-0.50% under setting [3]; 0.00-0.50% under setting [4].
